≈ marks a conversion by molar mass, not a printed value.
How the values were obtained:
[1] = system: CYP1A2; assay: CYP450 reaction phenotyping, CYP1A2-Silensomes; format: in vitro ADME, human
Text: (§1) Silensomes™ CYP phenotyping kits (Lonza; Basel, Switzerland) contain human pooled liver microsomes (HLM) that are chemically and irreversibly inactivated by mechanism-based inhibitor for each specific CYP450 isoenzyme. Each CYP-Silensomes™ has a corresponding control that is produced the same way without inactivation. […] However, CYP2C19-Silensomes™ were not available for purchasing. The assay was essentially performed according to the instructions of the supplier. […] At 0, 10, 20, 30, and 45 min, 50 µL of the reaction volume was removed and put in a tube containing 50 µL of methanol to stop the CYP reactions. The tubes were allowed to stand at 4 °C for 1 h to allow protein precipitation to occur. Afterwards, the tubes were centrifuged at 3500 × g for 15 min at 4 °C before the supernatant was removed and analyzed using LC–MS/MS. The control experiments with the control HLM were performed at the same time as the Silensomes™. The in vitro intrinsic clearance (Clint) for each enzyme was calculated as follows: Clint (µL/min/mg) = (slope × V)/P, where the slope is the elimination rate constant (min^−1) for exponential substrate loss, V is the incubation volume (µL), and P is the microsomal protein (mg). The fraction metabolized by each CYP enzymes was determined as follows: fm = (1 – (Clint CYP-Silensomes™/Clint Control-Silensomes™)) × 100. Three independent experiments were conducted with the same batch of Silensomes™.

[2] = system: CYP3A4; conditions: clearance of DIF in healthy human adults; ref Wetmore et al. (2014); cited from earlier work
[3] = system: CYP2C9; assay: CYP450 reaction phenotyping, CYP2C9-Silensomes; format: in vitro ADME; conditions: human, pH 7.4
Text: as §1, with “Three independent experiments were conducted with the same batch of Silensomes™.” left out

[4] = system: HepaRG cells; assay: Total RNA sequencing, differential gene expression; conditions: 24 h, vs solvent control
[5] = system: HepaRG cells; assay: Quantification of DIF in cell culture supernatant (LC-MS/MS); conditions: 24-h treatment of HepaRG cells; µg DIF in medium/µg start concentration × 100%
Procedure: HepaRG cells were incubated for 24 h at 37 °C and 5% CO2 in a humidified atmosphere with each test compound in treatment medium of 0.5% final DMSO concentration. After incubation, medium was harvested and cells were washed twice with 0.5 mL PBS, which was added to the harvested medium. Cell lysis was performed on ice by adding 0.55 mL of RIPA Lysis and Extraction Buffer (Thermo Fisher Scientific, Waltham, Massachusetts, USA) in each well. The experiment was conducted in duplicates, which were pooled to make a final volume of 3 mL for medium samples and 1.1 ml of the cell samples for each test compound. The Pierce™ BCA Protein Assay Kit (Thermo Fisher Scientific, Waltham, Massachusetts, USA) was utilized to quantify protein in 50 µL of the cell lysates in order to normalize the measured pesticide concentrations in cells to absolute protein quantities.
Briefly, each of the 1.5 mL of medium samples and 500 µL cell samples was added to 50 mL centrifuge tubes. Up to 5 mL Milli-Q water was added followed by 10 mL acetonitrile. The mixture was shaken vigorously by a vortex mixer for 10 min. […]
Samples from the CYP450 reaction phenotyping and pesticide quantification were analyzed with an Agilent 1290 Infinity II LC system coupled to Agilent 6475 triple quadrupole LC/MS systems (Agilent Technologies; Heilbronn, Germany). […]

[6] = system: CYP2C9; conditions: clearance of DIF in healthy human adults; ref Wetmore et al. (2014); cited from earlier work
[7] = system: UGT1A4; conditions: clearance of DIF in healthy human adults; ref Wetmore et al. (2014); cited from earlier work
[8] = CYP450 reaction phenotyping, control-Silensomes; format: in vitro ADME, human
Text: as §1, with “Three independent experiments were conducted with the same batch of Silensomes™.” left out

[9] = WST-1 cytotoxicity assay; format: cell-based, human; conditions: human, differentiated HepaRG cells, WST-1 assay, 72 h incubation
Procedure: (§2) Wild-type human hepatoma HepaRG cells obtained from Biopredic International (Saint Grégoire, France) were cultivated for 4 weeks in a Binder cell culture incubator maintained at 37 °C in a 5% humidified atmosphere with 5% CO2 before they were employed in this study. The 4 weeks consisted of 2 weeks of proliferation and 2 weeks of differentiation. […]
(§3) Cytotoxicity assays were performed in 96-well plates at a density of 9000 cells per well, and test compounds were incubated for 72 h. […] After the 30-min incubation with WST-1, absorbance was measured at 450 nm corrected by a reference at 620 nm (λexc = 450 nm/λemi = 620 nm) using an Infinite M200 PRO plate reader (Tecan; Männedorf, Switzerland). […] The absorbed dye was quantified by fluorescence measurement (λexc = 530 nm/λemi = 645 nm) on an Infinite M200 PRO plate reader (Tecan; Männedorf, Switzerland). Background corrected viability values of both assays were expressed as a percentage of untreated cells. […] Means and standard deviations for each treatment were calculated. […]

[10] = Neutral red uptake (NRU) cytotoxicity assay; format: cell-based, human; conditions: human, differentiated HepaRG cells, NRU assay, 72-h incubation
Procedure: as §2, §3

[11] = system: CYP3A4; assay: CYP450 reaction phenotyping, CYP3A4-Silensomes; format: in vitro ADME, human
Text: as §1, with “Three independent experiments were conducted with the same batch of Silensomes™.” left out

[12] = high sub-cytotoxic concentration
[13] = low sub-cytotoxic concentration

CC1COC(Cn2cncn2)(c2ccc(Oc3ccc(Cl)cc3)cc2Cl)O1 (centres unmarked) [DIF, difenoconazole]
CYP1A2 fm (fraction metabolized) ([1]; Silensomes vs control-Silensomes): ≈ 0%
DIF remaining, CYP1A2-Silensomes ([1]; after a 45-min incubation): about 20%
microsomal CLint at 1 µM ([1]; human, pH 7.4): 15.8 µL/min/mg
CYP3A4 fm [2]: 43.3%
microsomal CLint at 1 µM [3]: 12.5 µL/min/mg
ACOX1 log2FoldChange [4, 12]: -0.02489
AHR log2FoldChange [4, 12]: 0.5444
CD36 log2FoldChange [4, 12]: -0.5278
FASN log2FoldChange [4, 12]: -0.3325
INSIG1 log2FoldChange [4, 12]: -1.049
MLXIPL log2FoldChange [4, 12]: 0.2472
NR1H2 log2FoldChange [4, 12]: 0.8621
NR1H4 log2FoldChange [4, 12]: -0.4056
NR1I2 log2FoldChange [4, 12]: 0.3067
NR1I3 log2FoldChange [4, 12]: -1.429
NR3C1 log2FoldChange [4, 12]: 0.4134
PPARA log2FoldChange [4, 12]: -0.3067
PPARG log2FoldChange [4, 12]: 2.421
RARA log2FoldChange [4, 12]: 0.4466
RARB log2FoldChange [4, 12]: 1.042
RARG log2FoldChange [4, 12]: 0.1102
SCD log2FoldChange [4, 12]: -0.7403
SREBF1 log2FoldChange [4, 12]: -1.013
ACOX1 log2FoldChange [4, 13]: 0.1757
AHR log2FoldChange [4, 13]: -0.129
CD36 log2FoldChange [4, 13]: 0.878
FASN log2FoldChange [4, 13]: 0.4404
INSIG1 log2FoldChange [4, 13]: 1.024
MLXIPL log2FoldChange [4, 13]: 0.1497
NR1H2 log2FoldChange [4, 13]: 0.1806
NR1H4 log2FoldChange [4, 13]: 0.1474
NR1I2 log2FoldChange [4, 13]: 0.3965
NR1I3 log2FoldChange [4, 13]: -0.3855
NR3C1 log2FoldChange [4, 13]: -0.2111
PPARA log2FoldChange [4, 13]: 0.07836
PPARG log2FoldChange [4, 13]: 0.2447
RARA log2FoldChange [4, 13]: 0.1188
RARB log2FoldChange [4, 13]: 0.3597
RARG log2FoldChange [4, 13]: 0.07285
SCD log2FoldChange [4, 13]: 0.5665
SREBF1 log2FoldChange [4, 13]: -0.5234
DIF remaining in the cell culture medium [5]: ~4%
CYP2C9 fm [6]: 5.41%
UGT1A4 fm [7]: 4.55%
DIF remaining, control-Silensomes ([8]; after a 45-min incubation): about 20%
microsomal CLint at 1 µM ([8]; human, pH 7.4): 15.7 µL/min/mg
EC50 at 72 h [9]: 11.8 µg/mL (≈ 29 µM)
EC50 at 72 h [10]: 15.9 µg/mL (≈ 39.1 µM)
CLint, CYP3A4-Silensomes ([11]; 1 µM DIF, 1 mg/mL, 37 °C): 9.27 µL x min^−1 × mg^−1
DIF remaining, CYP3A4-Silensomes ([11]; after 45 min): ~40%

From paper PMC12367838, “Relevance of kinetic interactions and co-formulants for plant protection product liver toxicity in vitro” (Archives of Toxicology, 2025)
